Reference: patent US9526249B2, “Biocidal composition of 2,6-dimethyl-m-dioxane-4-ol acetate and methods of use” (priority 2008, dated 2016)

Key:
Type in all cases: cell-based
[1] = tested on: Pseudomonas aeruginosa (ATCC#15442), Pseudomonas aeruginosa (ATCC#10145), Enterobacter aerogenes (ATCC#13048), Escherichia coli (ATCC#11229), Klebsiella …; assay: Preservative efficacy (repeated bacterial challenge) of dimethoxane/CMIT/MIT in commercial water-based latex paint (pH 7.4), 96-deep well block
Method: (§1) In the following examples, tests are conducted in a 96-deep well block format using a total sample volume of 600 μl for all evaluations. In these samples, no more than 10% of the total volume consists of the biocide and organism solution and all non-matrix additions are normalized for all samples. Each experimental 96-well block contains biocide-treated samples and control samples which lack biocide.
(§2) Twenty-four hour tryptic soy broth cultures are combined in equal parts for formulation inoculation at a final concentration of 5×10^6 CFU/ml. Organisms are added to each sample of the 96-well block and mixed until homogenous. Additionally, bacterial challenges of the industrial or household product occur on days 2, 7, and 14 of the 28-day test period.
(§3) Sample aliquots are removed, at predetermined time points, for the enumeration of surviving microorganisms. Numerical values in the data tables listed below represent the log10 viable microorganisms recovered from individual samples at specific time points and biocide concentrations post microorganism addition. Biocide concentrations resulting in a≧4 log10 kill of microorganisms, as compared to the preservative-free control, were deemed a significant reduction of viable organisms and were subsequently used for calculating synergy index values.
(§4) The reported synergy indexes are measured and calculated using the formula described below. In this approach, a synergy index of 1 indicates additivity. If the index is less than 1, synergy has occurred, while a synergy index greater than 1 indicates antagonism. Synergy index=CA/Ca+CB/Cb Ca=minimal concentration of antimicrobial A, alone, producing a 4 log10 microbial kill Cb=minimal concentration of antimicrobial B, alone, producing a 4 log10 microbial kill
(§5) CA and CB=the concentrations of antimicrobials A and B, in combination, producing a 4 log10 microbial kill.
The antimicrobial profiles of 2,6-dimethyl-m-dioxan-4-ol acetate (dimethoxane), 5-chloro-2-methyl-4-isothiazolin-3-one/2-methyl-4-isothiazolin-3-one (CMIT/MIT) and combinations of dimethoxane/CMIT/MIT are evaluated in a commercial (interior eggshell) water-based latex paint formulation (pH 7.4). The paint formulation is determined to be free of microbial contamination prior to initiation of preservative efficacy evaluations.
(§6) Organisms for this example: Pseudomonas aeruginosa (ATCC#15442), Pseudomonas aeruginosa (ATCC#10145), Enterobacter aerogenes (ATCC#13048), Escherichia coli (ATCC#11229), Klebsiella pneumoniae (ATCC#8308), Staphylococcus aureus (ATCC#6538), Salmonella choleraesuis (ATCC#10708).

[2] = tested on: Pseudomonas aeruginosa (ATCC#15442), Pseudomonas aeruginosa (ATCC#10145), Enterobacter aerogenes (ATCC#13048), Escherichia coli (ATCC#11229), Klebsiella …; assay: Preservative efficacy (repeated bacterial challenge) of dimethoxane/BIT in commercial water-based latex paint (pH 7.4), 96-deep well block
Method: as §1, §2, §3, §4, §5
The antimicrobial profiles of dimethoxane, BIT, and combinations of dimethoxane/BIT are evaluated in a commercial (interior eggshell) water-based latex paint formulation (pH 7.4). The paint formulation is determined to be free of microbial contamination prior to initiation of preservative efficacy evaluations.
as §6

[3] = tested on: Pseudomonas aeruginosa (ATCC#15442), Pseudomonas aeruginosa (ATCC#10145), Enterobacter aerogenes (ATCC#13048), Escherichia coli (ATCC#11229), Klebsiella …; assay: Preservative efficacy (repeated bacterial challenge) of dimethoxane/BIT in commercial liquid laundry detergent (pH 8.0), 96-deep well block
Method: as §1, §2, §3, §4, §5
The antimicrobial profiles dimethoxane, 1,2-benzisothiazol-3-one (BIT), and combinations of dimethoxane/BIT are evaluated in a commercial liquid laundry detergent formulation (pH 8.0).
as §6

[4] = tested on: wild strain of green algae isolated from contaminated PVA latex; assay: Challenge testing of PVA latex against wild strain of green algae; details: Dimethoxane 2000 ppm alone (CMIT/MIT 0 ppm), three weeks
Method: Procedure. In this example, a viscous PVA (poly vinyl acetate) latex diluted with water at 5 to 1 ratio is used for algal efficacy testing. Each sample is mixed well by hand and vortex for 2 minutes. 5mL portions of each sample are then placed in a six-well plate and inoculated with 500 μL of 1×10^6 cfu/mL wild strain of green algae isolated from contaminated PVA latex.
The plates are incubated at room temp (25° C.-26° C.) under cyclic exposure to light (OTT-Lite model #OTL4012P, 40 Watt, 26 KLumen) and dark phases, for a period of three weeks.

[5] = tested on: Pseudomonas aeruginosa (ATCC#15442), Pseudomonas aeruginosa (ATCC#10145), Enterobacter gergoviae (ATCC#33028), Escherichia coli (ATCC#11229), Pseudomonas …; assay: Preservative efficacy (repeated bacterial challenge) of dimethoxane/MIT in commercial liquid laundry detergent (pH 8.0), 96-deep well block; details: day 20
Method: as §1, §2, §3, §4, §5
The antimicrobial profiles of 2,6-dimethyl-m-dioxan-4-ol acetate (dimethoxane), 2-methyl-3-isothiazolinone (MIT), and combinations of dimethoxane/MIT are evaluated in a commercial liquid laundry detergent formulation (pH 8.0). The detergent formulation is determined to be free of microbial contamination prior to initiation of preservative efficacy evaluations.
Organisms for this example: Pseudomonas aeruginosa (ATCC#15442), Pseudomonas aeruginosa (ATCC#10145), Enterobacter gergoviae (ATCC#33028), Escherichia coli (ATCC#11229), Pseudomonas putida (ATCC#49128), Staphylococcus aureus (ATCC#6538).

[6] = day 20, ppm active, following four bacterial challenges

CC(=O)OC1CC(C)OC(C)O1 (stereo not shown) [DMX, 2,6-dimethyl-m-dioxane-4-ol acetate]
log10 viable microorganisms ([1]; 480 h, 1740 ppm): 2 log10
log10 viable microorganisms ([1]; DMX alone 102 ppm a.i., day 20): 8 log10
log10 viable microorganisms ([1]; DMX alone 153 ppm a.i., day 20): 8 log10
log10 viable microorganisms ([1]; DMX alone 229 ppm a.i., day 20): 7 log10
log10 viable microorganisms ([1]; DMX alone 344 ppm a.i., day 20): 7 log10
log10 viable microorganisms ([1]; DMX alone 516 ppm a.i., day 20): 8 log10
log10 viable microorganisms ([1]; DMX alone 773 ppm a.i., day 20): 8 log10
log10 viable microorganisms ([1]; DMX alone 1160 ppm a.i., day 20): 6 log10
DMX alone (minimal concentration producing a 4 log10 microbial kill) [1, 6]: 1740 ppm
log10 viable microorganisms ([2]; 360 h, 1160 ppm): 3 log10
log10 viable microorganisms ([2]; DMX alone 102 ppm a.i., day 15): 7 log10
log10 viable microorganisms ([2]; DMX alone 153 ppm a.i., day 15): 8 log10
log10 viable microorganisms ([2]; DMX alone 229 ppm a.i., day 15): 7 log10
log10 viable microorganisms ([2]; DMX alone 344 ppm a.i., day 15): 7 log10
log10 viable microorganisms ([2]; DMX alone 516 ppm a.i., day 15): 8 log10
log10 viable microorganisms ([2]; DMX alone 773 ppm a.i., day 15): 7 log10
log10 viable microorganisms ([2]; DMX alone 1740 ppm a.i., day 15): 0 log10
DMX alone (minimal concentration producing a 4 log10 microbial kill) ([2]; day 15, ppm active, following four bacterial challenges): 1160 ppm
log10 viable microorganisms ([3]; 480 h, 1160 ppm): 0.0 log10
log10 viable microorganisms ([3]; DMX alone 102 ppm a.i., day 20): 6.0 log10
log10 viable microorganisms ([3]; DMX alone 153 ppm a.i., day 20): 6.0 log10
log10 viable microorganisms ([3]; DMX alone 229 ppm a.i., day 20): 6.0 log10
log10 viable microorganisms ([3]; DMX alone 344 ppm a.i., day 20): 6.0 log10
log10 viable microorganisms ([3]; DMX alone 516 ppm a.i., day 20): 6.0 log10
log10 viable microorganisms ([3]; DMX alone 773 ppm a.i., day 20): 4.0 log10
log10 viable microorganisms ([3]; DMX alone 1740 ppm a.i., day 20): 0.0 log10
DMX alone (minimal concentration producing a 4 log10 microbial kill) [3, 6]: 1160 ppm
% algal growth Sample A [4]: 15%
% algal growth Sample B [4]: 15%
log10 viable microorganisms ([5]; DMX alone 77 ppm): 8.0 log10
log10 viable microorganisms ([5]; DMX alone 115 ppm): 8.0 log10
log10 viable microorganisms ([5]; DMX alone 172 ppm): 8.0 log10
log10 viable microorganisms ([5]; DMX alone 257 ppm): 5.0 log10
log10 viable microorganisms ([5]; DMX alone 386 ppm): 4.0 log10
log10 viable microorganisms ([5]; DMX alone 580 ppm): 3.0 log10
log10 viable microorganisms ([5]; DMX alone 870 ppm): 1.0 log10
log10 viable microorganisms ([5]; DMX alone 1305 ppm): 0.0 log10
DMX alone (minimal concentration producing a 4 log10 microbial kill) [5]: 870

Cn1ccc(=O)s1 [MIT, 2-Methyl-3-isothiazolinone]
log10 viable microorganisms (score) ([5]; MIT alone 3 ppm): 8.0 log10
log10 viable microorganisms (score) ([5]; MIT alone 4 ppm): 8.0 log10
log10 viable microorganisms (score) ([5]; MIT alone 7 ppm): 8.0 log10
log10 viable microorganisms (score) ([5]; MIT alone 10 ppm): 8.0 log10
log10 viable microorganisms (score) ([5]; MIT alone 15 ppm): 8.0 log10
log10 viable microorganisms (score) ([5]; MIT alone 22 ppm): 8.0 log10
log10 viable microorganisms (score) ([5]; MIT alone 33 ppm): 8.0 log10
log10 viable microorganisms (score) ([5]; MIT alone 50 ppm): 3.0 log10
MIT Alone (minimal concentration producing a 4 log10 microbial kill) [5]: >50 ppm

O=c1[nH]sc2ccccc12 [BIT, 1,2-benzisothiazol-3-one]
log10 viable microorganisms (score) ([2]; BIT alone 29 ppm, day 15): 8 log10
log10 viable microorganisms (score) ([2]; BIT alone 44 ppm, day 15): 7 log10
log10 viable microorganisms (score) ([2]; BIT alone 66 ppm, day 15): 6 log10
log10 viable microorganisms (score) ([2]; BIT alone 99 ppm, day 15): 7 log10
log10 viable microorganisms (score) ([2]; BIT alone 148 ppm, day 15): 7 log10
log10 viable microorganisms (score) ([2]; BIT alone 222 ppm, day 15): 8 log10
log10 viable microorganisms (score) ([2]; BIT alone 333 ppm, day 15): 8 log10
log10 viable microorganisms (score) ([2]; BIT alone 500 ppm, day 15): 5 log10
log10 viable microorganisms (score) ([3]; BIT alone 18 ppm, day 20): 6.0 log10
log10 viable microorganisms (score) ([3]; BIT alone 26 ppm, day 20): 7.0 log10
log10 viable microorganisms (score) ([3]; BIT alone 40 ppm, day 20): 3.0 log10
log10 viable microorganisms (score) ([3]; BIT alone 59 ppm, day 20): 0.0 log10
log10 viable microorganisms (score) ([3]; BIT alone 89 ppm, day 20): 0.0 log10
log10 viable microorganisms (score) ([3]; BIT alone 133 ppm, day 20): 0.0 log10
log10 viable microorganisms (score) ([3]; BIT alone 200 ppm, day 20): 1.0 log10
log10 viable microorganisms (score) ([3]; BIT alone 300 ppm, day 20): 1.0 log10
BIT alone (minimal concentration producing a 4 log10 microbial kill) [3, 6]: 59 ppm
